Reference: US6596730B1, “Phenyl urea and phenyl thiourea derivatives” (SmithKline Beecham p.l.c., priority 1999, dated 2003)
Counter-ions that a name gives are not always drawn.

Legend:
human orexin-1 receptor = target: T1, human orexin-1 receptor (Homo sapiens, UniProt O43613); assay: Determination of orexin-1 receptor antagonist activity (FLIPR calcium mobilisation, HEK293 cells, against 3.0 nM human orexin-A); type: cell-based; settings: HEK293 cells expressing human orexin-1 receptor; Kb=IC50/(1+([3/EC50]); agonist 3.0 nM human orexin-A
T1 construct: expressed in transfected cells; host or cells: HEK293
T1 sequence (O43613 1-425): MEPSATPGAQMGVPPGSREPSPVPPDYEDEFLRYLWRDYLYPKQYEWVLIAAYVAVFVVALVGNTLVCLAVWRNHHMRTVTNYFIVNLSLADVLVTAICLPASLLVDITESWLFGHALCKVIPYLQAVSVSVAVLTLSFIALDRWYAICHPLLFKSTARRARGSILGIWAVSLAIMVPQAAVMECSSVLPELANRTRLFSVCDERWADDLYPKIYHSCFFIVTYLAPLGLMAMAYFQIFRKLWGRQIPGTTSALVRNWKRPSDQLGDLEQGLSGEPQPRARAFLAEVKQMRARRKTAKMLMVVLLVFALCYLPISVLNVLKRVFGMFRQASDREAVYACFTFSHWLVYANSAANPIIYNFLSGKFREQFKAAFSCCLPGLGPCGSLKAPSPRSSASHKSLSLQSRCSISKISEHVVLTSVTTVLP
Protocol: The orexin-1 receptor antagonist activity of the compounds of formula (I) was determined in accordance with the following experimental method.
HEK293 cells expressing the human orexin-1 receptor were grown in cell medium (MEM medium with Earl's salts) containing 2 mM L-Glutamine, 0.4 mg/mL G418 Sulfate from GIBCO BRL and 10% heat inactivated fetal calf serum from Gibco BRL. The cells were seeded at 20,000 cells/100 μl/well into 96-well black clear bottom sterile plates from Costar which had been pre-coated with 10 μg/well of poly-L-lysine from SIGMA. The seeded plates were incubated overnight at 37° C. in 5% CO2.
Agonists were prepared as 1 mM stocks in water:DMSO (1:1). […] Antagonist IC^50 values (the concentration of compound needed to inhibit 50% of the agonist response) were determined against 3.0 nM human orexin-A using 11×half log unit dilutions in Tyrode's buffer containing 10% DMSO and probenecid. On the day of assay 50 μl of cell medium containing probenecid (Sigma) and Fluo3AM (Texas Fluorescence Laboratories) was added (Quadra, Tomtec) to each well to give final concentrations of 2.5 mM and 4 μM, respectively. […] Cell plates were then transferred to the Fluorescent Imaging Plate Reader (FLIPR, Molecular Devices) instrument and maintained at 37° C. in humidified air. […] Agonists were added (by the FLIPR) after 20 sec (during continuous reading). […]

rat = assay: Rat sleep/EEG studies, central administration; type: in vivo; settings: central administration at the onset of the normal sleep period
Source text: Therefore antagonists of its receptor may be useful in the treatment of sleep disorders including insomnia.

freely-feeding rats = settings: central administration, 4 hour time period; cited from earlier work

Compound | Kb (human orexin-1 receptor) [nM] | effect on arousal / sleep (rat) | increase in food intake over control rats receiving vehicle (freely-feeding rats)
COc1ccc(NC(=O)Nc2cc(C)nc3cccnc23)cc1C(=O)NCC1CC1 [Example 2, N-Cyclopropylmethyl-2-methoxy-5-[3-(2-methyl-[1,5]-naphthyridin-4-yl)ureido]benzamide Hydrochloride] | < 31.6 | – | –
orexin-A: ligand for the orexin-1 receptor, agonist of the orexin receptors; 33-residue peptide, sequence given in the 1st table (QPLPDCCRQKTCSCRLYELLHGAGNHAAGILTL; Orexin-A; UniProt O43612 34-66, looked up) | – | dose-related increase in arousal | approximately four-fold
